Measurements reported in BigSolDB 2.1.

Conditions: in ethylbenzene

CCCCCCCCCCCCCCCCCCCCCCC
Conditions	solubility (mole fraction)
271.13 K	0.00366
280.09 K	0.0136
285.88 K	0.0295
288.62 K	0.0415
292.61 K	0.0698
295.02 K	0.094
297.34 K	0.124
298.77 K	0.147
300.52 K	0.173
300.9 K	0.184

CCCCCCCCCCCCCCCCCCCCCCCC
Conditions	solubility (mole fraction)
272.02 K	0.00269
279.76 K	0.00689
285.62 K	0.0142
289.1 K	0.0224
292.74 K	0.0346
296 K	0.0511
299.02 K	0.0732
301.52 K	0.0997
303.08 K	0.117
304.88 K	0.144
306.15 K	0.163

CCCCCCCCCCCCCCCCCCCCCC
Conditions	solubility (mole fraction)
268.67 K	0.00443
274.22 K	0.00854
277.47 K	0.0123
281.39 K	0.0202
284.43 K	0.0294
286.56 K	0.0381
289.51 K	0.0539
291.7 K	0.0702
293.53 K	0.0865
295.46 K	0.107
296.91 K	0.127
297.87 K	0.143
298.81 K	0.256
299.86 K	0.171
300.54 K	0.186
301.25 K	0.198
302.03 K	0.213
302.44 K	0.226

CCCCCCCCCCCCCCCCCCCC
Conditions	solubility (mole fraction)
266.52 K	0.00955
270.33 K	0.0149
272.73 K	0.0195
275.75 K	0.0265
278.21 K	0.0364
281.94 K	0.0536
282.8 K	0.0614
284.97 K	0.0791
286.15 K	0.0904
287.19 K	0.104
288.25 K	0.116
289.67 K	0.136
290.53 K	0.151
291.27 K	0.164
292.34 K	0.179
292.97 K	0.191
293.9 K	0.204

CCCCCCCCCCCCCCCCCCCCC
Conditions	solubility (mole fraction)
262.5 K	0.0047
268.03 K	0.01
275.53 K	0.026
278.56 K	0.0366
281.9 K	0.0549
284.95 K	0.0739
286.6 K	0.095
288.45 K	0.115
290 K	0.14
291.15 K	0.164
293.16 K	0.201
294.57 K	0.235
295.72 K	0.263
